The source of these data is patent US8715714B2, “Uses of rare earth elements for hair improvement” (Micellbio Co., Ltd., priority 2006, dated 2014).

Common to all, as to assay type: cell-based
Test [1] relates to tyrosinase. Kind of test: Expression of tyrosinase in B16F10 cells by Western blotting. The conditions noted are these: mouse melanoma cell line; versus control group; FIG. 9. The method, then: (§1) Cells were cultivated according to the same process as in Experimental Example 6, and centrifuged (100×g) for 10 minutes to harvest the cells. In order to measure the expression of tyrosinase by Western blotting, 100 μg of the cell extract was resolved on 10% SDS-PAGE, transferred to NC, and then, blocked with TBS containing 5% skim milk. Then, it was reacted with a primary antibody diluted to 1:2,500 (monoclonal anti-tyrosine hydroxylase clone Th-2) and a secondary antibody diluted to 1:5,000 (anti-mouse IgG), respectively, and washed with TBS containing 0.2% Tween-20, and then, photosensitized on an X-ray film using an ECL detection kit. Then, OD values were graphed using an image analysis program of LabWork™ (version 4.4.00.0).
(In general: In western blotting, separated proteins are transferred to a membrane and probed.)

The target in test [2] is T1, tyrosinase (Homo sapiens, UniProt P14679).
T1 sequence (P14679 19-529): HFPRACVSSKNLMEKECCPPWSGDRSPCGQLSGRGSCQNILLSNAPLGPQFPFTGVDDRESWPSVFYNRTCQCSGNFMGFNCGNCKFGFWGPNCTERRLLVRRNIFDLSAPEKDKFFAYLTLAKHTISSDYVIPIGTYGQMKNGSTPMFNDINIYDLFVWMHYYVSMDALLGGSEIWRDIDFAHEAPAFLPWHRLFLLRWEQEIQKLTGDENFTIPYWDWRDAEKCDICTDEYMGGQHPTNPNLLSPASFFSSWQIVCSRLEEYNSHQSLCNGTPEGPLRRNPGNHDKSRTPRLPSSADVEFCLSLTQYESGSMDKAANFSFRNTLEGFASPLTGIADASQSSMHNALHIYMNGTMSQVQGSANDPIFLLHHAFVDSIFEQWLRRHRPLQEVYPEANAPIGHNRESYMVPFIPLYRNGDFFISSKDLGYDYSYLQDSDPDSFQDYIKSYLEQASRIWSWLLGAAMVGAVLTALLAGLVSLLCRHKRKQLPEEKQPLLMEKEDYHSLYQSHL
The experiment in a line: Activity of tyrosinase in Sk-mel-31 cells. The conditions noted are these: 10 μg to 1 pg, versus control group, FIG. 7. The method, then:
(§2) In order to evaluate the effect of promoting black hair formation, the activity of tyrosinase was measured in Sk-mel-31, a human melanoma cell, and B16F10, a mouse melanoma cell. The cells were cultivated in an incubator at 37° C. (5% CO2 and 60% relative humidity) while maintaining a density of 1×10^6 cells/ml for Sk-mel-31 and 2×10^5 cells/ml for B16F10 in RPMI-1640 medium (containing 1% penicillin-streptomycin and 10% fetal bovine serum). The cells were stabilized in the incubator for 24 hours, and the culture medium containing FBS was replaced by FBS-free RPMI-1640. The cells were treated with mixed rare earth elements of 10 μg, 1 μg, 100 ng, 10 ng, 1 ng, 100 pg, […] and 1 pg, respectively, and individual rare earth elements of 10 ng. In order to measure the activity of tyrosinase, the cells were cultivated for a given time, centrifuged (100×g) for 10 minutes, and harvested. […] The cells were placed in an ice bath for one hour, and centrifuged with 40,000×g at 4° C. for 20 minutes to obtain a cell extract. 130 μl of 5 mM L-DOPA (L-3,4-dihydroxyphenylalanine) and 120 μl of 25 mM MBTH (3-methyl-2-benzothiazolinone hydrazone) were added to 250 μl of an analysis buffer containing 100 mM potassium phosphate (pH 7.1), 4% N,N-dimethylformamide and 0.1% (v/v) Triton X-100, and reacted in a thermostat at 37° C. for 5 minutes, and then, 100 μg of the cell extract was added thereto, and further reacted for 2 hours. Then, 500 μl of 1 M perchloric acid was added thereto and the mixture was centrifuged with 9,000×g at room temperature for 20 minutes. Then, the supernatant was taken and absorbance was measured at 505 nm.

The subject of test [3] is Mouse embryo fibroblasts NIH 3T3. The experiment in a line: MTT cell proliferation assay in NIH 3T3 fibroblasts. On the procedure:
Mouse embryo fibroblasts NIH 3T3 were cultivated in an incubator at 37° C. ([…], 5% CO2 and 60% humidity) while maintaining a density of 2×10^6 or 4×10^6 cells/ml in Dulbecco's modified Eagle's media (DMEM) supplemented with 10% fetal bovine serum (FBS) and 1% penicillin-streptomycin. Cell proliferation was measured by using MTT [3-(3,5-dimethyl-thiazol-2-yl)-2,5-diphenyltetrazolium bromide] assay. For MTT assay, the cells were plated in a 96-well plate at 2×10^3 cells/ml per well, and treated with a culture medium supplemented with 10% FBS. The cells were stabilized in the incubator for 24 hours, the culture medium supplemented with FBS was replaced by FBS-free DMEM, and the cells were treated with mixed rare earth elements of 10 μg, 1 μg, 100 ng, 10 ng, 1 ng, 100 pg, 10 pg and 1 pg, respectively, and individual rare earth elements of 10 ng. Then, the cells were cultivated for a given time, 50 μl per well of MTT (2 mg/l ml sterilized distilled water) was added thereto, and the mixture was reacted for 4 hours. The reaction mixture was treated with DMSO (dimethyl sulfoxide) and shaken for 30 minutes. Absorbance was measured at 540 nm using an ELISA reader (550, Bio-rad).

Test [4] deals with T2, tyrosinase (Mus musculus, UniProt P11344).
T2 sequence (P11344 19-533): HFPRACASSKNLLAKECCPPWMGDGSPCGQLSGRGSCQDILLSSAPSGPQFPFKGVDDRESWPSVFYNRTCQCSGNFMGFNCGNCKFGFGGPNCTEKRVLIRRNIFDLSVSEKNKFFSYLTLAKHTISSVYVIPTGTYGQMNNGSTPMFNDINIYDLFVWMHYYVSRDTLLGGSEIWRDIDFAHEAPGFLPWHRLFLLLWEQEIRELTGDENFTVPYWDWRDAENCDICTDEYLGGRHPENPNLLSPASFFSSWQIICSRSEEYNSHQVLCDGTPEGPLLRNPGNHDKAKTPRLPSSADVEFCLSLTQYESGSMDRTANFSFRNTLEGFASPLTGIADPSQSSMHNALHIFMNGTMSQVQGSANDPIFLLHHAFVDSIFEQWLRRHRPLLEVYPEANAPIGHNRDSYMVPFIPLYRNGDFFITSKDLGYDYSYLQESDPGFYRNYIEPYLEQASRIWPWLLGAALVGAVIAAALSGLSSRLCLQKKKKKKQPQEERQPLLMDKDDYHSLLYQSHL
Kind of test: Activity of tyrosinase in B16F10 cells. The conditions noted are these: 10 μg to 1 pg, versus control group, FIG. 8. On the procedure:
as §2

In test [5] the test system is tyrosinase. The experiment in a line: Expression of tyrosinase in Sk-mel-31 cells by Western blotting. The note with it: human melanoma cell line; versus control group; FIG. 9. On the procedure: as §1
In test [6] the test system is Sk-mel-31, a human melanoma cell. The experiment in a line: Melanin production in Sk-mel-31 cells. The conditions noted are these: human melanoma cell line; versus control group; FIG. 10. On the procedure:
(§3) Cells were cultivated according to the same process as in Experimental Example 6, and centrifuged (100×g) for 10 minutes to harvest the cells. In order to measure the production of melanin, 200 μg of the cell extract was added to 1 N NaOH (total 1 ml), allowed to stand at room temperature for 30 minutes, and then, absorbance was measured at 400 nm.
(§4) In order to measure the production of melanin, the cells were cultivated and harvested according to the same process as that of Experimental Example 6, and the production of melanin was measured according to the same process as that of Experimental Example 8.

Test [7] relates to B16F10, a mouse melanoma cell. The experiment in a line: Melanin production in B16F10 cells. The conditions noted are these: mouse melanoma cell line; versus control group; FIG. 10. The method, then:
as §3, §4

SMILES strings stand for the structures. Entries after “also recorded” stand apart in the source; their conditions may differ.

As to `[Gd]` [Gd, gadolinium], the expression of tyrosinase entry in the test with tyrosinase [1] and in the test on tyrosinase [5] was “relatively lower effect” throughout. Also, the tyrosinase activity result on tyrosinase [2] and on tyrosinase [4] was “increased; also recorded: relatively lower effect” in each case. The “cell proliferation compared with the non-treated group” value is recorded as “increased” in test [3] (10 μg to 1 pg, FIG. 1) and “relatively inferior effect” in test [3] (each element of 10 ng, FIG. 2). In addition, the melanin production entry in test [6] and in test [7] was “relatively lower effect” throughout.
`[Sm]` [Sm, samarium]: the expression of tyrosinase result in the test on tyrosinase [1] and with tyrosinase [5] was “relatively lower effect” throughout. For the same compound, the tyrosinase activity entry at tyrosinase [2] and at tyrosinase [4] was “relatively lower effect” in each case. The “cell proliferation compared with the non-treated group” value in test [3] (each element of 10 ng, FIG. 2) was “relatively inferior effect”. The melanin production entry in test [6] and in test [7] was “relatively lower effect” each time.
In the case of `[Nd]` [Nd, neodymium], the expression of tyrosinase entry in the test with tyrosinase [1] and in the test on tyrosinase [5] was “relatively lower effect” each time. Further, the tyrosinase activity result at tyrosinase [2] and at tyrosinase [4] was “relatively lower effect” in each case. Besides, in test [3] (each element of 10 ng, FIG. 2), the “cell proliferation compared with the non-treated group” value was “relatively inferior effect”. Moreover, the melanin production result in test [6] and in test [7] was “relatively lower effect” throughout.
In the case of `[La]` [La, lanthanum], the expression of tyrosinase result in the test with tyrosinase [1] and with tyrosinase [5] was “relatively lower effect” throughout. The tyrosinase activity result at tyrosinase [2] and on tyrosinase [4] was “increased; also recorded: relatively lower effect” in each case. Further, the “cell proliferation compared with the non-treated group” value is recorded as “increased” in test [3] (10 μg to 1 pg, FIG. 1) and “relatively inferior effect” in test [3] (each element of 10 ng, FIG. 2). The melanin production entry in test [6] and in test [7] was “relatively lower effect” throughout.
For `[Lu]` [Lu, lutetium], the expression of tyrosinase result in the test on tyrosinase [1] and with tyrosinase [5] was “relatively lower effect” each time. The tyrosinase activity entry on tyrosinase [2] and at tyrosinase [4] was “relatively lower effect” each time. For the same compound, in test [3] (each element of 10 ng, FIG. 2), the “cell proliferation compared with the non-treated group” value is recorded as “relatively inferior effect”. In addition, the melanin production result in test [6] and in test [7] was “relatively lower effect” in each case.
As for `[Eu]` [Eu, europium], the expression of tyrosinase entry in the test on tyrosinase [1] and in the test with tyrosinase [5] was “substantially the same effect” throughout. Besides, the tyrosinase activity entry at tyrosinase [2] and on tyrosinase [4] was “increased; also recorded: substantially the same effect as mixed rare earth elements” throughout. Also, in test [3] (10 μg to 1 pg, FIG. 1), the “cell proliferation compared with the non-treated group” value is reported as “increased”. Moreover, the melanin production result in test [6] and in test [7] was “substantially the same effect” each time.
For the compound `[Ce]` [Ce, cerium], the tyrosinase activity entry on tyrosinase [2] and on tyrosinase [4] was “increased; also recorded: substantially the same effect as mixed rare earth elements; also recorded: most greatly increased” in each case. Further, the “cell proliferation compared with the non-treated group” value in test [3] (10 μg to 1 pg, FIG. 1) was “increased”; in test [3] (10 μg to 1 pg, FIG. 1, maximum) it was “up to 1.69 times”; in test [3] (each element of 10 ng, FIG. 2) it was “most greatly increased”. The expression of tyrosinase result in the test with tyrosinase [5] is “substantially the same effect; also recorded: most greatly increased”. Moreover, the melanin production result in test [7] was “substantially the same effect; also recorded: most greatly increased”.
